# Measurements: ChEMBL document CHEMBL1201862, “PubChem BioAssay data set” (2004)
#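 Each compound was tested at five concentrations against cells in 96-well plates for 48 hours. GI50 is the concentration that inhibits growth by half.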 Calls of active or inactive are those of the source. No stated cut-off is given here; in the data, active = GI50 up to about 1.1 µM and inactive = higher.
# Key:
# Assay in all cases: NCI-60 cell line screen, 48 h
# HCT-116 = tested on: HCT-116
# SNB-19 = tested on: SNB-19
# NCI/ADR-RES = tested on: NCI/ADR-RES
# OVCAR-3 = tested on: OVCAR-3
# OVCAR-4 = tested on: OVCAR-4
# BT-549 = tested on: BT-549
# CCRF-CEM = tested on: CCRF-CEM
# UACC-62 = tested on: UACC-62
# M14 = tested on: M14
# PC-3 = tested on: PC-3
# SK-MEL-2 = tested on: SK-MEL-2
# K562 = tested on: K562
# NCI-H460 = tested on: NCI-H460
# RPMI-8226 = tested on: RPMI-8226
# 786-0 = tested on: 786-0
# NCI-H23 = tested on: NCI-H23
# MDA-MB-435 = tested on: MDA-MB-435
# SW-620 = tested on: SW-620
# IGROV-1 = tested on: IGROV-1
# MDA-MB-231 = tested on: MDA-MB-231
# ACHN = tested on: ACHN
# SF-539 = tested on: SF-539
# UACC-257 = tested on: UACC-257
# MCF7 = tested on: MCF7
# HOP-92 = tested on: HOP-92
# COLO 205 = tested on: COLO 205
# A549 = tested on: A549
# SR = tested on: SR
# A498 = tested on: A498
# SK-MEL-5 = tested on: SK-MEL-5
# LOX IMVI = tested on: LOX IMVI
# HT-29 = tested on: HT-29
# MDA-N = tested on: MDA-N
# U-251 = tested on: U-251
# T47D = tested on: T47D
# SNB-75 = tested on: SNB-75
# SK-MEL-28 = tested on: SK-MEL-28
# SK-OV-3 = tested on: SK-OV-3
# SF-295 = tested on: SF-295
# HOP-62 = tested on: HOP-62
# KM12 = tested on: KM12
# HCT-15 = tested on: HCT-15
# UO-31 = tested on: UO-31
# NCI-H226 = tested on: NCI-H226
# CAKI-1 = tested on: CAKI-1
# SN12C = tested on: SN12C
# EKVX = tested on: EKVX
# MOLT-4 = tested on: MOLT-4
# OVCAR-8 = tested on: OVCAR-8
# OVCAR-5 = tested on: OVCAR-5
# DU-145 = tested on: DU-145
# HCC 2998 = tested on: HCC 2998
# TK-10 = tested on: TK-10
# NCI-H522 = tested on: NCI-H522
# SF-268 = tested on: SF-268
# HL-60 = tested on: HL-60
# RXF 393 = tested on: RXF 393
# Malme-3M = tested on: Malme-3M
structure (smiles),measurement,setting,value
COc1ccc(CNc2nc3cc(C(F)(F)F)ccc3nc2C(=O)O)cc1OC,GI50,HCT-116,29 µM (inactive)
same,GI50,SNB-19,29.6 µM (inactive)
same,GI50,NCI/ADR-RES,34 µM (inactive)
same,GI50,OVCAR-3,22.3 µM (inactive)
same,GI50,OVCAR-4,48.2 µM (inactive)
same,GI50,BT-549,41.2 µM (inactive)
same,GI50,CCRF-CEM,18.4 µM (inactive)
same,GI50,UACC-62,20.5 µM (inactive)
same,GI50,M14,32 µM (inactive)
same,GI50,PC-3,27.5 µM (inactive)
same,GI50,SK-MEL-2,23.2 µM (inactive)
same,GI50,K562,24.4 µM (inactive)
same,GI50,NCI-H460,36.6 µM (inactive)
same,GI50,RPMI-8226,28.1 µM (inactive)
same,GI50,786-0,32.9 µM (inactive)
same,GI50,NCI-H23,33.4 µM (inactive)
same,GI50,MDA-MB-435,26.7 µM (inactive)
same,GI50,SW-620,43.5 µM (inactive)
same,GI50,IGROV-1,12.2 µM (inactive)
same,GI50,MDA-MB-231,32.5 µM (inactive)
same,GI50,ACHN,26.1 µM (inactive)
same,GI50,SF-539,32.5 µM (inactive)
same,GI50,UACC-257,34.2 µM (inactive)
same,GI50,MCF7,23.2 µM (inactive)
same,GI50,HOP-92,27.2 µM (inactive)
same,GI50,COLO 205,22.5 µM (inactive)
same,GI50,A549,35.6 µM (inactive)
same,GI50,SR,23.9 µM (inactive)
same,GI50,A498,27.5 µM (inactive)
same,GI50,SK-MEL-5,20.8 µM (inactive)
same,GI50,LOX IMVI,33.7 µM (inactive)
same,GI50,HT-29,35.6 µM (inactive)
same,GI50,MDA-N,36.5 µM (inactive)
same,GI50,U-251,24.3 µM (inactive)
same,GI50,T47D,37.8 µM (inactive)
same,GI50,SNB-75,47.9 µM (inactive)
same,GI50,SK-MEL-28,67 µM (inactive)
same,GI50,SK-OV-3,29.7 µM (inactive)
same,GI50,SF-295,34 µM (inactive)
same,GI50,HOP-62,22 µM (inactive)
same,GI50,KM12,32.1 µM (inactive)
same,GI50,HCT-15,29.4 µM
same,GI50,UO-31,28.3 µM (inactive)
same,GI50,NCI-H226,64.1 µM (inactive)
same,GI50,CAKI-1,28.6 µM (inactive)
same,GI50,SN12C,26.8 µM (inactive)
same,GI50,EKVX,31.8 µM (inactive)
same,GI50,MOLT-4,22.8 µM (inactive)
same,GI50,OVCAR-8,42.6 µM (inactive)
same,GI50,OVCAR-5,46 µM (inactive)
same,GI50,DU-145,41.4 µM (inactive)
same,GI50,HCC 2998,36 µM (inactive)
COC(=O)C1C(OC(=O)C(Cl)(c2ccccc2)c2ccccc2)CC2CCC1N2C (configuration not stated),GI50,HCT-116,> 100 µM (inactive)
same,GI50,SNB-19,> 100 µM (inactive)
same,GI50,NCI/ADR-RES,> 100 µM (inactive)
same,GI50,OVCAR-3,> 100 µM (inactive)
same,GI50,BT-549,> 100 µM (inactive)
same,GI50,CCRF-CEM,> 100 µM (inactive)
same,GI50,UACC-62,> 100 µM (inactive)
same,GI50,TK-10,> 100 µM (inactive)
same,GI50,M14,45.1 µM (inactive)
same,GI50,PC-3,> 100 µM (inactive)
same,GI50,K562,> 100 µM (inactive)
same,GI50,RPMI-8226,> 100 µM (inactive)
same,GI50,786-0,> 100 µM (inactive)
same,GI50,NCI-H23,> 100 µM (inactive)
same,GI50,MDA-MB-435,> 100 µM (inactive)
same,GI50,SW-620,> 100 µM (inactive)
same,GI50,IGROV-1,> 100 µM (inactive)
same,GI50,MDA-MB-231,> 100 µM (inactive)
same,GI50,ACHN,> 100 µM (inactive)
same,GI50,SF-539,> 100 µM (inactive)
same,GI50,UACC-257,> 100 µM (inactive)
same,GI50,MCF7,> 100 µM (inactive)
same,GI50,COLO 205,> 100 µM (inactive)
same,GI50,A549,> 100 µM (inactive)
same,GI50,SR,> 100 µM (inactive)
same,GI50,NCI-H522,> 100 µM (inactive)
same,GI50,SK-MEL-5,> 100 µM (inactive)
same,GI50,SF-268,> 100 µM (inactive)
same,GI50,LOX IMVI,> 100 µM (inactive)
same,GI50,HT-29,> 100 µM (inactive)
same,GI50,MDA-N,> 100 µM (inactive)
same,GI50,U-251,> 100 µM (inactive)
same,GI50,T47D,> 100 µM (inactive)
same,GI50,SNB-75,> 100 µM (inactive)
same,GI50,SK-MEL-28,> 100 µM (inactive)
same,GI50,SK-OV-3,> 100 µM (inactive)
same,GI50,SF-295,> 100 µM (inactive)
same,GI50,HOP-62,> 100 µM (inactive)
same,GI50,HL-60,> 100 µM (inactive)
same,GI50,KM12,> 100 µM (inactive)
same,GI50,HCT-15,> 100 µM
same,GI50,UO-31,> 100 µM (inactive)
same,GI50,NCI-H226,> 100 µM (inactive)
same,GI50,RXF 393,> 100 µM (inactive)
same,GI50,Malme-3M,> 100 µM (inactive)
same,GI50,CAKI-1,94.6 µM (inactive)
same,GI50,SN12C,> 100 µM (inactive)
same,GI50,EKVX,> 100 µM (inactive)
same,GI50,MOLT-4,> 100 µM (inactive)
same,GI50,OVCAR-8,> 100 µM (inactive)
same,GI50,OVCAR-5,> 100 µM (inactive)
same,GI50,DU-145,> 100 µM (inactive)
same,GI50,HCC 2998,> 100 µM (inactive)
O=C(Nc1nnc(-c2c(Cl)c(Cl)c(Cl)c(Cl)c2-c2nc3cc(C(=O)c4ccccc4)ccc3[nH]2)o1)c1ccc(Cl)cc1,GI50,HCT-116,36.5 µM (inactive)
same,GI50,SNB-19,34 µM (inactive)
same,GI50,NCI/ADR-RES,26.7 µM (inactive)
same,GI50,OVCAR-3,13.8 µM (inactive)
same,GI50,OVCAR-4,24.7 µM (inactive)
same,GI50,BT-549,41.9 µM (inactive)
same,GI50,CCRF-CEM,6.27 µM (inactive)
same,GI50,TK-10,51.9 µM (inactive)
same,GI50,M14,35.5 µM (inactive)
same,GI50,PC-3,25.1 µM (inactive)
same,GI50,SK-MEL-2,29.6 µM (inactive)
same,GI50,K562,7.91 µM (inactive)
same,GI50,RPMI-8226,81.7 µM (inactive)
same,GI50,786-0,30.3 µM (inactive)
same,GI50,NCI-H23,26.8 µM (inactive)
same,GI50,MDA-MB-435,6.31 µM (inactive)
same,GI50,SW-620,57 µM (inactive)
same,GI50,IGROV-1,29.2 µM (inactive)
same,GI50,MDA-MB-231,48.6 µM (inactive)
same,GI50,ACHN,30.7 µM (inactive)
same,GI50,SF-539,22.4 µM (inactive)
same,GI50,UACC-257,36.8 µM (inactive)
same,GI50,MCF7,20.2 µM (inactive)
same,GI50,HOP-92,20.5 µM (inactive)
same,GI50,COLO 205,15.5 µM (inactive)
same,GI50,A549,25.6 µM (inactive)
same,GI50,SR,4.88 µM (inactive)
same,GI50,A498,18.2 µM (inactive)
same,GI50,SK-MEL-5,12.2 µM (inactive)
same,GI50,LOX IMVI,34.8 µM (inactive)
same,GI50,HT-29,37.9 µM (inactive)
same,GI50,MDA-N,5.89 µM (inactive)
same,GI50,U-251,32 µM (inactive)
same,GI50,T47D,30.5 µM (inactive)
same,GI50,SNB-75,47.8 µM (inactive)
same,GI50,SK-MEL-28,36.7 µM (inactive)
same,GI50,SK-OV-3,40.2 µM (inactive)
same,GI50,SF-295,5.86 µM (inactive)
same,GI50,HOP-62,12.8 µM (inactive)
same,GI50,HL-60,20.3 µM (inactive)
same,GI50,KM12,43.5 µM (inactive)
same,GI50,HCT-15,22.5 µM
same,GI50,UO-31,41.7 µM (inactive)
same,GI50,NCI-H226,26.4 µM (inactive)
same,GI50,RXF 393,26.5 µM (inactive)
same,GI50,CAKI-1,40.7 µM (inactive)
same,GI50,SN12C,17.9 µM (inactive)
same,GI50,EKVX,25.9 µM (inactive)
same,GI50,MOLT-4,13.6 µM (inactive)
same,GI50,OVCAR-8,39.2 µM (inactive)
same,GI50,OVCAR-5,> 100 µM (inactive)
same,GI50,DU-145,58.6 µM (inactive)
